Read-outs that look alike come from different tables or passages of the source.

The source of these data is patent US9090599B2, “Heteroarylmethyl amides” (Hoffman-La Roche Inc., priority 2010, dated 2015).

One assay addresses T1, human CB1 receptor (Homo sapiens, UniProt P21554).
T1 construct: expressed in transfected cells; host or cells: human embryonic kidney (HEK) cells, Semliki Forest Virus system, membrane preparations
Nature of the assay: CB1 receptor affinity, [3H]-CP-55,940 displacement, HEK cell membranes. The format is binding. The following applies: read-out: CB1 receptor affinity [% inhibition @ 10 μM]. The method, then: (§1) The affinity of the compounds of the invention for cannabinoid receptors was determined using membrane preparations of human embryonic kidney (HEK) cells in which the human CB1 receptor is transiently transfected using a Semliki Forest Virus system in conjunction with [3H]-CP-55,940 as radioligand. After incubation of freshly prepared cell membrane preparation with the [^3H]-ligand, with or without addition of compounds of the invention, separation of bound and free ligand was performed by filtration over glass fiber filters. Radioactivity on the filter was measured by scintillation counting.
(§2) The ability of the compounds to displace the radioligand [^3H]-CP-55,940 was measured at a concentration of 10 μM and values provided as [% inhibition @ 10 μM] both for the CB 1 and CB2 receptor assay, The lower % inhibition is, the lower the likelihood of side effects based on CB1 or CB2 receptor inhibition is.

The subject of the next assay is ABCA1 protein. Briefly: Detection of upregulation of ABCA1 protein in THP-1 macrophage cells (ApoA-I binding, high content imaging). The format is cell-based. The following applies: 24 hrs with compound, AlexaFluor 647 ApoA-I binding, read-out: ABCA1 protein increasing efficacy EC50. The method, then:
The ability of compounds of the invention to increase the level of ABCA1 protein is determined in replicate cultures of THP-1 macrophage cells in 96-well microplates. Cells are plated at an initial density of 100,000 cells/well in 100 μl medium and differentiated to adherent macrophages with the addition of PMA (100 nM) for 68 hrs in 10% fetal bovine serum, 3 μl/L of b-mercaptoethanol, RPMI-1640 medium. Then, cells are incubated with RPMI-1640 medium containing 1% FCS, 25 μg/ml acetylated LDL, for 24 hours at 37°. Following incubation with acetylated LDL, cells are washed twice with 50 μl PBS and incubated with 100 μl of RPMI-1640 medium containing the compound of interest solubilized in DMSO for an additional 24 hrs. The final DMSO concentration in presence of cells is maintained at 0.5%. ApoA-I binding assay using High Content Image Analysis is initiated by replacing with fresh medium, RPMI without Phenol Red, 0.2% BSA containing AlexaFluor®647 labeled ApoA-I for 2 h/37° C./5% CO2. Then, cells are fixed with 4% Formaldehyde in PBS (15 min, RT). Following Nuclei are stained with Hoechst solution (3 μM PBS) and Cytoplasm with Cell Mask Blue (2 μg/ml PBS), 15 min, RT. Finally the stained cells are fixed with a second round of formaldehyde treatment. Fixed stained cells are washed and kept in PBS at 4° C. and can be read immediately until one month after preparation.
The Alexa Fluor 647-labeled Apolipoprotein A-I (20 nM) was prepared as follows: Human recombinant Apolipoprotein A-I (ApoA-I) was exchanged to a buffer of 0.02 M NaHCO3 at pH 8.2 on an NAP desalting column (GE Healthcare) and brought to a concentration to 40 μM (1.13 mg/ml) by adjustment with the same buffer. The ApoA-I was fluorescently labeled by incubation with Alexa Fluor carboxylic acid succimidyl ester. (Alexa Fluor 647, Invitrogen A-20006) at a 2:1 molar ratio (Alexa to ApoA-I) for 1 h under shaking at RT. The remaining unconjugated label was removed by buffer exchange to 0.02M NaHCO3 at pH 8.2.
Imaging and data collection were performed on an OPERA confocal microplate imaging reader using a 20× water immersion objective and UV360 or 405 laser to identify the cell nuclei and a 635 laser to identify the fluorescent ApoA-I. Eight fields of view are captured per well. Image capture and analysis was performed with the Acapella software. Background fluorescence detected in control wells without ApoA-I was subtracted.
Using XLfit3 program (ID Business Solutions Ltd. UK), the model 205 for Dose Response One Site is used to calculate the EC50 values. […] Preferably, the compounds of the present invention have EC50 values in a range of 0.1 μM to 3 μM.

A further assay has as its target T2, human CB2 receptor (Homo sapiens, UniProt P34972).
T2 construct: expressed in transfected cells; host or cells: human embryonic kidney (HEK) cells, Semliki Forest Virus system, membrane preparations
Briefly: CB2 receptor affinity, [3H]-CP-55,940 displacement, HEK cell membranes. The following applies: 10 μM compound, radioligand [3H]-CP-55,940. Type of assay: binding. Here is the method:
as §1, with “cannabinoid CB2” for “cannabinoid”, “CB2” for “CB1”, “[^3H]-CP-55,940” for “[3H]-CP-55,940”
as §2

[1] abbreviates: 10 μM compound, radioligand [3H]-CP-55,940.

T2 sequence (P34972 whole entry): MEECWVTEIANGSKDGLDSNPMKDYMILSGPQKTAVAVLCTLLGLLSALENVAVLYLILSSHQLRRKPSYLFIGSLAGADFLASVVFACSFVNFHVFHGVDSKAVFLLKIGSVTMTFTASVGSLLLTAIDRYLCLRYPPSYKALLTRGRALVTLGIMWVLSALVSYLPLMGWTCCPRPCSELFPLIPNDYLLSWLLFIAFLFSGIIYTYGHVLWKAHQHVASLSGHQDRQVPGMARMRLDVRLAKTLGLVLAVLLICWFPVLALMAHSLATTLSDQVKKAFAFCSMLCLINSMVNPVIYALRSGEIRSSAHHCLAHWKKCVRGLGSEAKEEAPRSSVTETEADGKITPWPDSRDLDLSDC
T1 sequence (P21554 whole entry): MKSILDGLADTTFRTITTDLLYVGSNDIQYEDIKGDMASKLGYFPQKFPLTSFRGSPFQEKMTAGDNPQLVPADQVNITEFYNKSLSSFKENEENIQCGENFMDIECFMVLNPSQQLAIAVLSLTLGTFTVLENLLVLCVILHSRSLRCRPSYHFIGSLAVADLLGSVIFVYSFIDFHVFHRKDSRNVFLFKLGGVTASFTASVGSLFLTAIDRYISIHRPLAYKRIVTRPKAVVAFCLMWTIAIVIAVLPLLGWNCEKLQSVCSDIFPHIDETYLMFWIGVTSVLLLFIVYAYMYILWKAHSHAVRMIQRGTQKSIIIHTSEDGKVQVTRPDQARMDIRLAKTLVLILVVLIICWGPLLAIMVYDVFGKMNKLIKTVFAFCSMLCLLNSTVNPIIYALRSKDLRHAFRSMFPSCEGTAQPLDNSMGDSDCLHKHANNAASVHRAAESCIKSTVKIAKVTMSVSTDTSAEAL

Broadly, the inhibition is the change of the read-out against control, counted positive when it falls. One may read the EC50 as the concentration that produces a half-maximal response. `COc1cc(CNC(=O)c2cc(-c3ccc(Cl)cc3)c(OCC(F)(F)F)cn2)on1` [Example 1, 4-(4-chloro-phenyl)-5-(2,2,2-trifluoro-ethoxy)-pyridine-2-carboxylic acid (3-methoxy-isoxazol-5-ylmethyl)-amide]: the inhibition at 10 µM on human CB1 receptor (setting [1]) was found to be 32%; at human CB2 receptor it was 28%. In addition, the EC50 with ABCA1 protein turned out to be 2010 nM.
Taken in the same sequence, the figures for `CC(C)c1cc(CNC(=O)c2cc(-c3ccc(Cl)cc3)c(OCC(F)(F)F)cn2)on1` [Example 2, 4-(4-chloro-phenyl)-5-(2,2,2-trifluoro-ethoxy)-pyridine-2-carboxylic acid (3-isopropyl-isoxazol-5-ylmethyl)-amide] were 30%, 14% and 1090 nM.
As for `CCc1cc(CNC(=O)c2cc(-c3ccc(Cl)cc3)c(OCC(F)(F)F)cn2)on1` [Example 3, 4-(4-chloro-phenyl)-5-(2,2,2-trifluoro-ethoxy)-pyridine-2-carboxylic acid (3-ethyl-isoxazol-5-ylmethyl)-amide], the inhibition at 10 µM at human CB1 receptor was 38%; on human CB2 receptor, 18%. In addition, the EC50 in the assay on ABCA1 protein is 1240 nM.
With `CCCn1ccc(CNC(=O)c2cc(-c3ccc(Cl)cc3)c(OCC(F)(F)F)cn2)n1` [Example 4, 4-(4-chloro-phenyl)-5-(2,2,2-trifluoro-ethoxy)-pyridine-2-carboxylic acid (1-propyl-1H-pyrazol-3-ylmethyl)-amide], the inhibition at 10 µM turned out to be 26% at human CB1 receptor (setting [1]) and 33% at human CB2 receptor. In the assay with ABCA1 protein, the EC50 is 2800 nM.
Taken in the same sequence, the figures for `COc1cc(CNC(=O)c2cnc(OCC(F)(F)F)c(-c3ccc(Cl)cc3)c2)on1` [Example 5, 5-(4-chloro-phenyl)-N-(3-methoxy-isoxazol-5-ylmethyl)-6-(2,2,2-trifluoro-ethoxy)-nicotinamide] were 48%, 5% and 2100 nM.
On to `O=C(NCc1nc(C(F)(F)F)no1)c1cnc(OCC(F)(F)F)c(-c2ccc3c(c2)CCC3)c1` [Example 85, 5-(2,3-dihydro-1H-inden-5-yl)-6-(2,2,2-trifluoroethoxy)-N-((3-(trifluoromethyl)-1,2,4-oxadiazol-5-yl)methyl)nicotinamide], for which the inhibition at 10 µM on human CB1 receptor (setting [1]) stood at 7%; at human CB2 receptor, 8%.
Taken in the same sequence, the figures for `COc1cc(CNC(=O)c2cnc(OCC(F)(F)F)c(-c3ccc(Cl)c(F)c3)c2)on1` [Example 86, 5-(4-chloro-3-fluorophenyl)-N-((3-methoxyisoxazol-5-yl)methyl)-6-(2,2,2-trifluoroethoxy)nicotinamide] were 37% and 9%.
Taken in the same sequence, the figures for `N#Cc1ccc(-c2cc(C(=O)NCc3nc(C(F)(F)F)no3)cnc2OCC(F)(F)F)cc1` [Example 87, 5-(4-cyanophenyl)-6-(2,2,2-trifluoroethoxy)-N-((3-(trifluoromethyl)-1,2,4-oxadiazol-5-yl)methyl)nicotinamide] were 45% and 3%.
Take `O=C(NCc1ccn(CC2CC2)n1)c1cnc(OCC(F)(F)F)c(-c2ccc(Cl)cc2)c1` [Example 88, 5-(4-chlorophenyl)-N-((1-(cyclopropylmethyl)-1H-pyrazol-3-yl)methyl)-6-(2,2,2-trifluoroethoxy)nicotinamide]: the results for the inhibition at 10 µM on human CB1 receptor (setting [1]) and at human CB2 receptor were 48% and 11%, respectively.
As to `Cc1noc(CNC(=O)c2cnc(OCC(F)(F)F)c(-c3ccc(Cl)cc3)c2)n1` [Example 90, 5-(4-chlorophenyl)-N-((3-methyl-1,2,4-oxadiazol-5-yl)methyl)-6-(2,2,2-trifluoroethoxy)nicotinamide], the inhibition at 10 µM at human CB1 receptor (setting [1]) was 50%; on human CB2 receptor it was 14%.
Taken in the same sequence, the figures for `O=C(NCc1nc(C(F)(F)F)no1)c1cnc(OC2CCC2)c(-c2ccc(Cl)cc2)c1` [Example 92, 5-(4-chlorophenyl)-6-cyclobutoxy-N-((3-(trifluoromethyl)-1,2,4-oxadiazol-5-yl)methyl)nicotinamide] were 43% and 9%.
The matching figures for `O=C(NCc1nc(C(F)(F)F)no1)c1cnc(OC2CCC2)c(-c2ccc(Cl)c(F)c2)c1` [Example 93, 5-(4-chloro-3-fluorophenyl)-6-cyclobutoxy-N-((3-(trifluoromethyl)-1,2,4-oxadiazol-5-yl)methyl)nicotinamide]: 18% and 7%.
Taken in the same sequence, the figures for `O=C(NCc1nc(C(F)(F)F)no1)c1cnc(OCC2CC2)c(-c2ccc(F)c(F)c2)c1` [Example 95, 6-(cyclopropylmethoxy)-5-(3,4-difluorophenyl)-N-((3-(trifluoromethyl)-1,2,4-oxadiazol-5-yl)methyl)nicotinamide] were 39% and 21%.
For the molecule `COCCOc1ncc(C(=O)NCc2nc(C(F)(F)F)no2)cc1-c1ccc(F)c(F)c1` [Example 96, 5-(3,4-difluorophenyl)-6-(2-methoxyethoxy)-N-((3-(trifluoromethyl)-1,2,4-oxadiazol-5-yl)methyl)nicotinamide], the values for the inhibition at 10 µM on human CB1 receptor (setting [1]) and at human CB2 receptor were 45% and 8%, respectively.
On to `COCCOc1ncc(C(=O)NCc2nc(C(F)(F)F)no2)cc1-c1ccc(Cl)c(F)c1` [Example 97, 5-(4-chloro-3-fluorophenyl)-6-(2-methoxyethoxy)-N-((3-(trifluoromethyl)-1,2,4-oxadiazol-5-yl)methyl)nicotinamide], for which the values for the inhibition at 10 µM at human CB1 receptor and on human CB2 receptor were 48% and 25%, respectively.
With `COCCOc1ncc(C(=O)NCc2nc(C(F)(F)F)no2)cc1-c1ccc(Cl)c(C)c1` [Example 98, 5-(4-chloro-3-methylphenyl)-6-(2-methoxyethoxy)-N-((3-(trifluoromethyl)-1,2,4-oxadiazol-5-yl)methyl)nicotinamide], the inhibition at 10 µM on human CB1 receptor (setting [1]) amounted to 41%; on human CB2 receptor, 16%.
The matching figures for `O=C(NCc1ccccn1)c1cnc(OC2CCC2)c(-c2ccc(Cl)cc2)c1` [Example 101, 5-(4-chlorophenyl)-6-cyclobutoxy-N-(pyridin-2-ylmethyl)nicotinamide]: 45% and 37%.
Turning to `O=C(NCc1nc(C(F)(F)F)no1)c1cnc(OCCO)c(-c2ccc(Cl)cc2)c1` [Example 102, 5-(4-chlorophenyl)-6-(2-hydroxyethoxy)-N-((3-(trifluoromethyl)-1,2,4-oxadiazol-5-yl)methyl)nicotinamide], the results for the inhibition at 10 µM at human CB1 receptor (setting [1]) and at human CB2 receptor were 26% and -4%, respectively.
In the case of `O=C(NCc1nc(C(F)(F)F)no1)c1cnc(O[C@@H]2CCOC2)c(-c2ccc(Cl)cc2)c1` [Example 103, (R)-5-(4-chlorophenyl)-6-(tetrahydrofuran-3-yloxy)-N-((3-(trifluoromethyl)-1,2,4-oxadiazol-5-yl)methyl)nicotinamide], the values for the inhibition at 10 µM on human CB1 receptor (setting [1]) and at human CB2 receptor were 47% and 24%, respectively.
